Reference: patent US8038984B2, “Membrane-permeant peptide complexes for treatment of sepsis” (Washington University, priority 1998, dated 2011)
Square brackets hold non-standard residues; d marks the D form. Ends that are not written are not given here. dOrn = NCCC[C@@H](N)C(=O)O; βAla = NCCC(=O)O

Key:
human lymphocytes [1] = test: Laser scanning confocal microscopy of internalization into human lymphocytes; assay type: cell-based; settings: 1 μM
Procedure: Freshly isolated human lymphocytes were incubated with fluorescently labeled Tat-BH4 peptide to confirm intracellular localization of the functional permeant peptide. For labeling, cells were suspended for 30 minutes in modified Earl's balanced salt solution containing 1 μM of the fluorescently labeled TAT-BH4. Control cells were treated identically except no labeled TAT-BH4 was added. Following fixation for 10 minutes in 4% paraformaldehyde, cells were analyzed for peptide internalization via detection of fluorescence by confocal microscopy using an inverted Zeiss Axiovert 200 laser scanning confocal microscope couple to a Zeiss LSM 5 PASCAL fitted with a 488 nm excitation Argon laser and a 520 nm bandpass emission filter. All images were obtained using a water immersion lens (40×) and identical instrument settings.

[2] = system: sepsis-induced lymphocyte apoptosis; test: Cecal ligation and puncture (CLP) sepsis model, lymphocyte apoptosis by active caspase 3; assay type: in vivo, C57BL6/J mice; settings: mice, 1 mg by mini-osmotic pump plus additional 9.5 mg dose i.p.
Procedure: C57BL6/J male mice were housed for at least one week before manipulations. Mice were anesthetized with halothane and an abdominal incision was performed. The cecum was identified, ligated, and punctured with a #30 gauge needle. The abdomen was closed in two layers and 1 cc of 0.9% saline was administered subcutaneously.
(§1) Thymocytes and splenocytes were obtained from CLP and sham-treated mice ˜20 hours postoperatively. The APO-BRDU™ kit (Phoenix Flow Systems, San Diego, Calif.) was employed for flow cytometric quantitation of TUNEL. Antibodies to active caspase 3 (Cell Signaling—Catalog #9664) were used in the flow cytometry and/or TUNEL assay.
The pumps were implanted approximately 3 hours prior to CLP because it requires ˜3 hours for pumps to activate and deliver steady state levels of compound.
The pumps were not activated until approximately three hours after implantation. […] Spleens, thymi and blood were harvested and examined for apoptosis via staining for active caspase 3.

human lymphocytes [3] = test: E. coli bacterial-induced lymphocyte apoptosis, staining for active caspase 3; assay type: cell-based; settings: human lymphocytes, live E. coli ~5 hours
Procedure: as §1
Lymphocytes were harvested from peripheral blood obtained from 6 healthy volunteers using a ficol gradient separation technique. Approximately 1×10^6 lymphocytes were plated in individual transwell containers. E. coli bacteria (strain ATCC 25922), that had been grown overnight in trypticase soy broth were added to a separate compartment of the transwell chamber separated from direct contact with the lymphocytes by a 0.02 micron filter (25 μl of bacteria at 3×10^9 CFUs added to 1 ml volume.

Substance | internalization into human lymphocytes (human lymphocytes [1]) | sepsis-induced CD3 T cell and B cell apoptosis in the spleen [2] | bacterial-induced apoptosis (human lymphocytes [3]; 500 nM) | bacterial-induced apoptosis (human lymphocytes [3]; 1 μM)
(d) ac-C(FM)RKKRR-Orn-RRR-β-A-(I)-SNRELVVDFLSYKLSQKGYS-COOH ([dR][dK][dK][dR][dR][dOrn][dR][dR][dR][βAla]SNRELVVDFLSYKLSQKGYS-OH; not fully specified (N-terminus)) [fluorescein conjugated TAT-BH4] | located intracellular | – | – | –
(d)-Ac-RKKRR-Orn-RRR-β-A-(l)-SNRELVVDFLSYKLSQKGYS-COOH (Ac-[dR][dK][dK][dR][dR][dOrn][dR][dR][dR][βAla]SNRELVVDFLSYKLSQKGYS-OH; SMILES CC(=O)N[C@H](CCCNC(=N)N)C(=O)N[C@H](CCCCN)C(=O)N[C@H](CCCCN)C(=O)N[C@H](CCCNC(=N)N)C(=O)N[C@H](CCCNC(=N)N)C(=O)N[C@H](CCCN)C(=O)N[C@H](CCCNC(=N)N)C(=O)N[C@H](CCCNC(=N)N)C(=O)N[C@H](CCCNC(=N)N)C(=O)NCCC(=O)N[C@@H](CO)C(=O)N[C@@H](CC(N)=O)C(=O)N[C@@H](CCCNC(=N)N)C(=O)N[C@@H](CCC(=O)O)C(=O)N[C@@H](CC(C)C)C(=O)N[C@H](C(=O)N[C@H](C(=O)N[C@@H](CC(=O)O)C(=O)N[C@@H](Cc1ccccc1)C(=O)N[C@@H](CC(C)C)C(=O)N[C@@H](CO)C(=O)N[C@@H](Cc1ccc(O)cc1)C(=O)N[C@@H](CCCCN)C(=O)N[C@@H](CC(C)C)C(=O)N[C@@H](CO)C(=O)N[C@@H](CCC(N)=O)C(=O)N[C@@H](CCCCN)C(=O)NCC(=O)N[C@@H](Cc1ccc(O)cc1)C(=O)N[C@@H](CO)C(=O)O)C(C)C)C(C)C) [TAT-BH4] | – | ameliorated the increase | significant decrease | significant decrease
